Laboratory results published in paper PMC11279465, “Dual Inhibitors of P-gp and Carbonic Anhydrase XII (hCA XII) against Tumor Multidrug Resistance with Piperazine Scaffold” (Molecules, 2024).

Columns and labels:
HT29/DOX cells [1] = experiment: ROS measurement (DCFDA-AM); type: cell-based, human; details: 1 µM
Method: (§1) Selected compounds have been tested for their cytotoxic activity at 24 h on HT29/DOX and A549/DOX cells and on the parental HT29 and A549 cells by MTT assay. To evaluate the mechanisms involved in CS, reactive oxygen species (ROS) were measured using the fluorescent probe 5-(and-6)-chloromethyl-2′,7′-dichlorodihydro-fluorescein diacetate-acetoxymethyl ester (DCFDA-AM), as previously reported. The results were expressed as nmol/mg cellular proteins. The amount of TBARS, as an index of lipoperoxidation, was measured with the Lipid Peroxidation (4-HNE) Assay Kit (Abcam, Cambridge, UK) that evaluates the 4-hydroxy-nonenale, one of the TBARS Results were expressed as nmoles/mg mitochondrial protein.

A549/DOX cells [2] = experiment: ROS measurement (DCFDA-AM); type: cell-based, human; details: 1 µM
Method: as §1

K562/DOX cells = experiment: Doxorubicin cytotoxicity enhancement assay (MTT); type: cell-based, human; details: 72 h
How it was run: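 K562/DOX cells exposed 72 h to varying doxorubicin concentrations plus 1 or 3 µM test compound. Viability by MTT absorbance, expressed as percentage of untreated control cells.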

HT29/DOX cells [3] = experiment: TBARS (lipid peroxidation, 4-HNE kit); type: cell-based, human; details: 1 µM
Method: as §1

A549/DOX cells [4] = experiment: TBARS (lipid peroxidation, 4-HNE kit); type: cell-based, human; details: 1 µM
Method: as §1

MRP1 = target: T1, MRP1 (Homo sapiens, UniProt P33527); experiment: Calcein-AM transport inhibition in MDCK-MRP1 cells; type: cell-based; details: mean ± SEM
T1 construct: expressed in transfected cells; host or cells: MDCK (Madin-Darby Canine Kidney)
Excerpt: (§2) The MDR interaction potency of these compounds was studied by detecting the inhibition of the P-gp-, MRP1- or BCRP-mediated efflux of a substrate in cells overexpressing the studied pumps. In detail, we measured the following: (i) the transport inhibition of the profluorescent probe calcein-AM (P-gp and MRP1 substrate) in MDCK-MDR1 and MDCK-MRP1 cells (P-gp- and MRP1-overexpressing cells, respectively); (ii) the transport inhibition of the fluorescent probe Hoechst 33342 (BCRP substrate) in MDCK-BCRP cells (BCRP-overexpressing cells).
Experiments were performed as previously described. MDCK-MDR1 and MDCK-MRP1 cells (30,000 cells per well) were seeded in a 96-well black CulturePlate in 100 µL of medium and allowed to grow overnight in a humidified atmosphere of 5% CO2 at 37 °C. […] All wells were washed 3 times with 100 µL ice-cold PBS and read with Victor3 (PerkinElmer) after adding 100 µL of cold PBS. […] In these experimental conditions, cell Calcein-AM accumulation in the absence and in the presence of each tested compound was evaluated and compared to the basal level of fluorescence derived from untreated cells. The increase in fluorescence from the baseline level was measured in the treated wells. EC50 values were determined by fitting the rate of fluorescence increase versus log[dose].

P-gp [5] = target: T2, P-gp (Homo sapiens, UniProt P08183); experiment: Calcein-AM transport inhibition in MDCK-MDR1 cells; type: cell-based; design: expressed in transfected cells; host or cells: MDCK (Madin-Darby Canine Kidney); details: mean ± SEM
Excerpt: as §2
Experiments were performed as previously described. MDCK-MDR1 and MDCK-MRP1 cells (30,000 cells per well) were seeded in a 96-well black CulturePlate in 100 µL of medium and allowed to grow overnight in a humidified atmosphere of 5% CO2 at 37 °C. Tested compounds (100 µL) in a final concentration ranging between 0.01 nM and 100 µM, solubilized in culture medium, were added to the monolayers. After 30 min in a humidified atmosphere of 5% CO2 at 37 °C, 100 µL of Calcein-AM in phosphate-buffered saline (PBS) was added to obtain a final concentration of 2.5 µM and the plate was incubated for 30 min. All wells were washed 3 times with 100 µL ice-cold PBS and read with Victor3 (PerkinElmer) after adding 100 µL of cold PBS. Excitation and emission wavelengths of 485 nm and 535 nm, respectively, were used. In these experimental conditions, cell Calcein-AM accumulation in the absence and in the presence of each tested compound was evaluated and compared to the basal level of fluorescence derived from untreated cells. The increase in fluorescence from the baseline level was measured in the treated wells. EC50 values were determined by fitting the rate of fluorescence increase versus log[dose].

HT29/DOX cells [6] = experiment: Intrinsic cytotoxicity (MTT); type: cell-based, human; details: compound alone, 1 µM, 48 h; HT29/DOX vs HT29
How it was run: (§3)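 Resistant HT29/DOX and A549/DOX cells exposed for 48 h to compounds from 10 nM to 50 µM; viability measured by MTT. Growth expressed as percentage of untreated control.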

A549/DOX cells [7] = experiment: Intrinsic cytotoxicity (MTT); type: cell-based, human; details: compound alone, 1 µM, 48 h; A549/DOX vs A549
How it was run: as §3

P-gp [8] = target: T2, P-gp; experiment: P-gp ATPase activity (HT29/DOX cells); type: biochemical; design: endogenous in cells; host or cells: HT29/DOX (A27) and A549/DOX (A28); details: 1 µM, compared with HT29
Method: (§4) Plasma-membrane vesicles enriched with P-gp were prepared by sequential centrifugation as detailed previously. The ATPase activity of immunopurified P-gp was evaluated spectrophotometrically by measuring the absorbance of the phosphate hydrolyzed from ATP at 620 nm, using a Synergy HT Multi-Detection Microplate Reader (Bio-Tek Instruments). The absorbance was converted into μmol hydrolyzed phosphate/min/mg proteins, according to the titration curve previously prepared.

hCA I = target: T3, hCA I (Homo sapiens, UniProt P00915); experiment: CA inhibition, stopped-flow CO2 hydrase assay; type: biochemical; details: stopped-flow technique; incubation time 6 h; mean of 3 assays
T3 construct: made in house
How it was run: (§5)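 Stopped-flow CO2 hydration used saturated CO2 solutions at 25 °C as substrate. Enzyme and inhibitor (10 μM stocks in DMSO-water, diluted down to 0.01 nM) were preincubated for 6 h at room temperature.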

hCA XII = target: T4, hCA XII (Homo sapiens, UniProt O43570); experiment: CA inhibition, stopped-flow CO2 hydrase assay; type: biochemical; details: stopped-flow technique; incubation time 6 h; mean of 3 assays
T4 construct: made in house
How it was run: as §5

hCA II = target: T5, hCA II (Homo sapiens, UniProt P00918); experiment: CA inhibition, stopped-flow CO2 hydrase assay; type: biochemical; details: stopped-flow technique; incubation time 6 h; mean of 3 assays
T5 construct: made in house
How it was run: as §5

hCA IX = target: T6, hCA IX (Homo sapiens, UniProt Q16790); experiment: CA inhibition, stopped-flow CO2 hydrase assay; type: biochemical; details: stopped-flow technique; incubation time 6 h; mean of 3 assays
T6 construct: made in house
How it was run: as §5

HT29/DOX cells [9] = experiment: Membrane fluidity; type: cell-based, human; details: 1 µM
Method: (§6) Membrane fluidity was measured fluorometrically using the Membrane Fluidity Kit, Abcam, according to the manufacturer’s instructions.

A549/DOX cells [10] = experiment: Membrane fluidity; type: cell-based, human; details: 1 µM
Method: as §6

P-gp [11] = target: T2, P-gp; experiment: P-gp ATPase activity (A549/DOX cells); type: biochemical; design: endogenous in cells; host or cells: HT29/DOX (A27) and A549/DOX (A28); details: 1 µM, compared with A549
Method: as §4

T2 sequence (P08183 whole entry): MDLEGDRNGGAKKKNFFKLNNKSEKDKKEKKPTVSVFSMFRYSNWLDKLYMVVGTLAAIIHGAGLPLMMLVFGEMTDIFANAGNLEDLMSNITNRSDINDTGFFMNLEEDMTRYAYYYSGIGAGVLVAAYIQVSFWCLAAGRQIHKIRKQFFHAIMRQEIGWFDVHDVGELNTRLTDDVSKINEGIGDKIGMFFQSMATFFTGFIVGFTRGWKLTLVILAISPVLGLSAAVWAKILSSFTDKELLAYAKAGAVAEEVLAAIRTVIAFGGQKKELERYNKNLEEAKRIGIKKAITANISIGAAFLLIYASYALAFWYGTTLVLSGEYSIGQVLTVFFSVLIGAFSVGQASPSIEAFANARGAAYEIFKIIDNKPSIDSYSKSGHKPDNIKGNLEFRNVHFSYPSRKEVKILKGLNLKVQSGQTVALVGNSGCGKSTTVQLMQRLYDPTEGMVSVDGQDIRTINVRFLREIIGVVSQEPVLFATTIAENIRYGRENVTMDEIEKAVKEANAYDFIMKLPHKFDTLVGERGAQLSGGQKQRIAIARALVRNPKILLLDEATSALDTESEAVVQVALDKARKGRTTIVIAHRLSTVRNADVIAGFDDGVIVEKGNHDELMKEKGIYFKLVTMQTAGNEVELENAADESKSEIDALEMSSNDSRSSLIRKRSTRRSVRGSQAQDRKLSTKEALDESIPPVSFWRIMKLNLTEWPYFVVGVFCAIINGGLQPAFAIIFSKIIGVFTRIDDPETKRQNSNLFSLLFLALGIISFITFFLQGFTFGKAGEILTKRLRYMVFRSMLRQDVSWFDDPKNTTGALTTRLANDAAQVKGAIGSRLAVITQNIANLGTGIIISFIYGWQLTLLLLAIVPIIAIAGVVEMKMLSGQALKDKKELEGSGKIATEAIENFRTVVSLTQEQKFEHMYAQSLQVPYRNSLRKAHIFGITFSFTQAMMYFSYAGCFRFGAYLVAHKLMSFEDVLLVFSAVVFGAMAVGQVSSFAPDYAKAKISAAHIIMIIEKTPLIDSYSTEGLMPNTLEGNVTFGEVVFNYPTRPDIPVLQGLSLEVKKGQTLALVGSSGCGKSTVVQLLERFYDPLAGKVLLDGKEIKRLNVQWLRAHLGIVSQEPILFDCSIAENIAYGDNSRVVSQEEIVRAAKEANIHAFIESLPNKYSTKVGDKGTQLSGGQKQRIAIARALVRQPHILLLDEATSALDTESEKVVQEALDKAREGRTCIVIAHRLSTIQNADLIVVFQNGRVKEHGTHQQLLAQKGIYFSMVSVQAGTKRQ
T1 sequence (P33527 whole entry): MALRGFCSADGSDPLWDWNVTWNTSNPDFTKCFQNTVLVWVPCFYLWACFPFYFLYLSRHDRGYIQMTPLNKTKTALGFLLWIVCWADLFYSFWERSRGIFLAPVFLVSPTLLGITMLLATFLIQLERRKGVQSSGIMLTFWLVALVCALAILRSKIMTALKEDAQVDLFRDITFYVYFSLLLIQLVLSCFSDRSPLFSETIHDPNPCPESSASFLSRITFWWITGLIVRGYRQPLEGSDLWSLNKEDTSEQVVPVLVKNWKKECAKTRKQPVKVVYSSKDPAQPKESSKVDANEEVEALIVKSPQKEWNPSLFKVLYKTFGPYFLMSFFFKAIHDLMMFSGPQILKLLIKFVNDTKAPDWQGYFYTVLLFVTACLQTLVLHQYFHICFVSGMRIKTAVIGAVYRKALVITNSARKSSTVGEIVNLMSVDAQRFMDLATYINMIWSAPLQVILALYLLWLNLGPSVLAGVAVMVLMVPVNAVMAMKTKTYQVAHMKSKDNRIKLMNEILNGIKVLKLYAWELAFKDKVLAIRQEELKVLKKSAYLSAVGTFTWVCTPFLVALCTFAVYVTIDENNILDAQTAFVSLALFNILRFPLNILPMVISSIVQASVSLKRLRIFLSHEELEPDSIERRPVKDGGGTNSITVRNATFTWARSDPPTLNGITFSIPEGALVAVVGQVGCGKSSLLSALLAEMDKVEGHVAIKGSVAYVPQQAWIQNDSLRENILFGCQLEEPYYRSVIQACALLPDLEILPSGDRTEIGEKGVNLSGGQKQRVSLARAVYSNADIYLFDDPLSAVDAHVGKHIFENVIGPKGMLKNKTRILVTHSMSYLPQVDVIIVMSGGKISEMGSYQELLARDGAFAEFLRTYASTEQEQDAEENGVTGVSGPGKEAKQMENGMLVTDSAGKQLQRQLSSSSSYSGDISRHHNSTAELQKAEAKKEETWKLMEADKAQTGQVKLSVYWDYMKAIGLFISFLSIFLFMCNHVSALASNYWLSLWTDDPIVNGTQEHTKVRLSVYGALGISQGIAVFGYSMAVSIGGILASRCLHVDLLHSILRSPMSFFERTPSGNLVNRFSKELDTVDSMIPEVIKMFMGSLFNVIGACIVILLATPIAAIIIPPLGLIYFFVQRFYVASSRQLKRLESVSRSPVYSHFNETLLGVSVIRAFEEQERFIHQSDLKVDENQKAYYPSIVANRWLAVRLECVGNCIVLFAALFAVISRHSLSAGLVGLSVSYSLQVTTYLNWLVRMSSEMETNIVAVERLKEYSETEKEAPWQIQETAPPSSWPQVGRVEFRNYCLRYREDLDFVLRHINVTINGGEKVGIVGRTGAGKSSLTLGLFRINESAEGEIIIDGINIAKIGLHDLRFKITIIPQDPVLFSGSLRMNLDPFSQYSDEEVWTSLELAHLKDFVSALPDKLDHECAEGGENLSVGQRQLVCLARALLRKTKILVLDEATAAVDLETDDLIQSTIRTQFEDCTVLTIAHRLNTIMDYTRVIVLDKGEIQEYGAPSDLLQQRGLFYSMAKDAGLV
T4 sequence (O43570 25-354): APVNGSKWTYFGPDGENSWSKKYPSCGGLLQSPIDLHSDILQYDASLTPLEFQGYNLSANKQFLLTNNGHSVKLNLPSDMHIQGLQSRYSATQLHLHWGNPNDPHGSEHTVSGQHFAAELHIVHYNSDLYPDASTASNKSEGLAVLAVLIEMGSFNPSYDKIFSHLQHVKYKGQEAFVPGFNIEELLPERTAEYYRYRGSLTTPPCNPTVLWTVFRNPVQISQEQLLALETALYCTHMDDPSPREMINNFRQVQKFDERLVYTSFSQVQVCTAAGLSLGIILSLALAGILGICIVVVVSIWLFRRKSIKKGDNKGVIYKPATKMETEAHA
T3 sequence (P00915 whole entry): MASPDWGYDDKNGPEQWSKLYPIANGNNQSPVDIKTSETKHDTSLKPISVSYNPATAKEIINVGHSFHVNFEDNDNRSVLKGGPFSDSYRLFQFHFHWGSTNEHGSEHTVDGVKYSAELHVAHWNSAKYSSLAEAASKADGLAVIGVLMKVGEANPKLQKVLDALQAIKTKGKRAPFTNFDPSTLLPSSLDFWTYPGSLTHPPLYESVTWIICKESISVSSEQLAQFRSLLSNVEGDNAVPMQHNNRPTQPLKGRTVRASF

- EC50 (MRP1): 52 ± 10 µM
- EC50 (P-gp [5]): 14.5 ± 0.25 µM
- Ki (hCA I): > 10 µM
- Ki (hCA XII): 0.0062 µM
- Ki (hCA II): > 10 µM
- Ki (hCA IX): 0.0237 µM
Compound: COc1cc(CN2CCN(CCOc3ccc4ccc(=O)oc4c3)CC2)cc(OC)c1OC [Compound 13, 7-(2-(4-(3,4,5-Trimethoxybenzyl)piperazin-1-yl)ethoxy)-2H-chromen-2-one]
- increase of ROS levels compared to the control (HT29/DOX cells [1]): 3–4 times
- increase of ROS levels compared to the control (A549/DOX cells [2]): 7–8 times
- RF (Reversal Fold: IC50 of doxorubicin alone / in presence of modulator) (K562/DOX cells; compound at 1 µM): 1.0
- RF (Reversal Fold: IC50 of doxorubicin alone / in presence of modulator) (K562/DOX cells; compound at 3 µM): 1.9
- increase of TBARS levels compared to the control (HT29/DOX cells [3]): 2.6 times
- increase of TBARS levels compared to the control (A549/DOX cells [4]): 4 times
- more cytotoxic in resistant cells than in parental sensitive cells (HT29/DOX cells [6]): 15%-20%
- more cytotoxic in resistant cells than in parental sensitive cells (A549/DOX cells [7]): 15%-20%
- P-gp catalytic activity (P-gp [8]): lowered the catalytic efficacy of P-gp in resistant cells to levels comparable to drug-sensitive HT29 and A549 cells
- membrane fluidity (HT29/DOX cells [9]): increased membrane fluidity
- membrane fluidity (A549/DOX cells [10]): increased membrane fluidity
- P-gp catalytic activity (P-gp [11]): lowered the catalytic efficacy of P-gp in resistant cells to levels comparable to drug-sensitive HT29 and A549 cells
